By IC50 is commonly meant the concentration at which inhibition is half-maximal.

Structures are written as SMILES. Structures can show the parent of a compound that is named as a salt. Some results are limits rather than exact numbers.

For this experiment, the target named is T1, N-type calcium channel (NTCC) (Homo sapiens, UniProt Q00975).
T1 construct: host or cells: IMR32 cells differentiated with dibutyryl cAMP and bromodeoxyuridine
The experiment is described as follows: FLIPR calcium mobilization assay for N-type calcium channel (differentiated IMR32 cells). It counts as cell-based. How it is done:
Cell maintenance and differentiation. Unless noted otherwise, cell culture reagents were purchased from Mediatech of Hemdon, Md. IMR32 cells (American Type Culture Collection, ATCC, Manassas, Va.) were routinely cultured in growth medium consisting of minimum essential medium containing 10% fetal bovine serum (FBS, Hyclone, Logan, Utah), 100 U/mL penicillin, 100 μg/mL streptomycin, 2 mM L-glutamine, 1 mM sodium pyruvate, and 1× MEM non-essential amino acids. 80-90% confluent flasks of cells were differentiated using the following differentiation medium: Growth medium plus 1 mM dibutyryl cyclic AMP (Sigma, St. Louis, Mo.), and 2.5 μM bromodeoxyuridine (Sigma). Cells were differentiated for 8 days by replacing differentiation medium every 2-3 days.
FLIPR Calcium Mobilization Assay for N-type Calcium Channel. One day prior to performing this assay, differentiated IMR32 cells were treated with 1× CellStripper, and seeded on poly-D-lysine-coated 96-well clear-bottom black plates (Becton Dickinson, Franklin Lakes, N.J.) at 200,000 cells/well. On the day of the assay, the cell plates were washed with IMR32 buffer (127 mM NaCl, 1 mM KCl, 2 mM MgCl2, 700 μM NaH2PO4, 5 mM CaCl2, 5 mM NaHCO3, 8 mM HEPES, 10 mM glucose, pH 7.4), then pre-stimulated with KCl and loaded as follows: 0.05 mL of IMR32 buffer, 0.05 mL of each compound tested diluted in IMR32 buffer containing 20 μM nitrendipine (Sigma), and 0.1 mL KCl dissolved in IMR32 buffer, plus Fluo-4 were added (3 μM final concentration, Molecular Probes, Eugene, Oreg.). Final test compound concentrations ranged from about 846 pM to about 17 μM, final nitrendipine concentration was 5 μM, and final KCl concentration was 90 mM. After 1 hour, the cells were washed twice with 0.05 mL of each compound tested in nitrendipine-containing IMR32 buffer (no KCl or Fluo-4), and then replaced with 0.1 mL of each compound tested in nitrendipine-containing IMR32 buffer. Plates were then transferred to a Fluorimetric imaging Plate Reader (FLIPR^96, Molecular Devices, Inc., Sunnyvale, Calif.) for assay. The FLIPR measured basal Fluo-4 fluorescence for 315 seconds (i.e., 5 minutes and 15 seconds), then added 0.1 mL KCl agonist dissolved in IMR32 buffer and measured fluorescence for another 45 seconds. Final test compound concentrations on the cells after FLIPR read ranged from about 846 pM to about 17 μM, final nitrendipine concentration was 5 μM, and final KCl concentration was 90 mM. Data were collected over the entire time course and analyzed using Excel, Graph Pad Prism (version 3.02, Graph Pad, San Diego, Calif.), or an in-house non-linear regression analysis software.
(In general: A change in cytosolic calcium serves as a functional read-out for many receptors and channels.)

Where [1] appears, read: about 1.0 μM or less, calcium mobilization and/or electrophysiological assay.

T1 sequence (Q00975 whole entry): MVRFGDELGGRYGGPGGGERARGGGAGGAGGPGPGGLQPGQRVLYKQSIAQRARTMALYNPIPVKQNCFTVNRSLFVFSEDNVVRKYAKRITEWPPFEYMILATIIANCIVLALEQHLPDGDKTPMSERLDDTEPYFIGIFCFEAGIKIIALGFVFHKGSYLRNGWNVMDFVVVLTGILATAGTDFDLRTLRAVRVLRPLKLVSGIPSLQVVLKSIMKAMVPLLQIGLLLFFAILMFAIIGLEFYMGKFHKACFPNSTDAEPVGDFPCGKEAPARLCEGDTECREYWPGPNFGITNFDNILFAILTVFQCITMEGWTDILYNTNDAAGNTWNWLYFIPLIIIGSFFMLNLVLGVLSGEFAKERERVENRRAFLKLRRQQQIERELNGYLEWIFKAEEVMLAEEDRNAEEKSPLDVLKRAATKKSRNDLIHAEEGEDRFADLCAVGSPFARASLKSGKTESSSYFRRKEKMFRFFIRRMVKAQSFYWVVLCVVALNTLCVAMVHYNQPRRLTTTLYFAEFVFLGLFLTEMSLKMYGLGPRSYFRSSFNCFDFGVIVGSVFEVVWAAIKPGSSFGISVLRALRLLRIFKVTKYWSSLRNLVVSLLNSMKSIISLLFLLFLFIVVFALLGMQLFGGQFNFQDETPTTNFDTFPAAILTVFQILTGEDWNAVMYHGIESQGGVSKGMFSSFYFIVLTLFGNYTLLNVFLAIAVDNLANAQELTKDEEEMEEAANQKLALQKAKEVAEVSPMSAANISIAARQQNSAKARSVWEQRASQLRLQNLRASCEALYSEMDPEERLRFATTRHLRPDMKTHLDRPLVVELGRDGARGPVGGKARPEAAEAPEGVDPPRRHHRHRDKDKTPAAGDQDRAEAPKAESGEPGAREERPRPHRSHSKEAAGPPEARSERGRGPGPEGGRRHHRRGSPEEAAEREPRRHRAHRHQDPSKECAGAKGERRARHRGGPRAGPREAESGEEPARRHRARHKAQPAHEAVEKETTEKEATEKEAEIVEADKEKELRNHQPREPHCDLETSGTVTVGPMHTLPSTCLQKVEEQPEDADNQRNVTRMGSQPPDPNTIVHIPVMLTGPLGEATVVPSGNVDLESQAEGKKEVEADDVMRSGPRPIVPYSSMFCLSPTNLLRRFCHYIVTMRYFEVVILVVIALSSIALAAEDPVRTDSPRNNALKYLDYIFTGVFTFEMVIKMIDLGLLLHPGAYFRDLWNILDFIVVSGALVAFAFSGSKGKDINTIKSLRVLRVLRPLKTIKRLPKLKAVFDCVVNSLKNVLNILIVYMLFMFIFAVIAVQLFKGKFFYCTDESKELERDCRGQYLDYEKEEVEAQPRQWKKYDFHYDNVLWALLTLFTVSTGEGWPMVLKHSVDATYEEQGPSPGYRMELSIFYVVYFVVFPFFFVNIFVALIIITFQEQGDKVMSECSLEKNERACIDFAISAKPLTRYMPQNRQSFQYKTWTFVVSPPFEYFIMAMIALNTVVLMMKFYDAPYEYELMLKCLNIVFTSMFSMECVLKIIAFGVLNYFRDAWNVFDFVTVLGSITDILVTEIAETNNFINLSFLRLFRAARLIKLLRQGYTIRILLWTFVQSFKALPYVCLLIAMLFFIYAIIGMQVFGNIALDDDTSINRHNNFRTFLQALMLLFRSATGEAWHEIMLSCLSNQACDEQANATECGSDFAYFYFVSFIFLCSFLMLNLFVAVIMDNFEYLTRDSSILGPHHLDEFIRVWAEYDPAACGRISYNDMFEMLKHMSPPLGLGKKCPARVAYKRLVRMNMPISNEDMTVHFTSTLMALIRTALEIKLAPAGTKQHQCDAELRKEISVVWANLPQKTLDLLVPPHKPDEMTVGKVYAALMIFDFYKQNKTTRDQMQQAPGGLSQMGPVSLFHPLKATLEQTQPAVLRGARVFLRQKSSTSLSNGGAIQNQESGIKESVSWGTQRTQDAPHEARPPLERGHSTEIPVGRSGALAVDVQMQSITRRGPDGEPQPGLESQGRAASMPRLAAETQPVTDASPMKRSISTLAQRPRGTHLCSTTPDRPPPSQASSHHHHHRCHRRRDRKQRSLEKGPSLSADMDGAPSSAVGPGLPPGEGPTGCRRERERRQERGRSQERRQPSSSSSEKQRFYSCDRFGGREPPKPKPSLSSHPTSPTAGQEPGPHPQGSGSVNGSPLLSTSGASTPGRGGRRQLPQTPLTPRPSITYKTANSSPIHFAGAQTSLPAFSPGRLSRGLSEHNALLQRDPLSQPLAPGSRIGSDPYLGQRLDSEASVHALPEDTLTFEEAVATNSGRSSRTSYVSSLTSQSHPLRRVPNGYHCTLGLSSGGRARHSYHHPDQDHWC

For `O=S(=O)(c1ccc(Oc2ccccc2)nc1)N1CCC(=NOCc2cccc(C(F)(F)F)c2)CC1` [Example 101, 1-(6-Phenoxypyridine-3-sulfonyl)piperidin-4-one O-(3-trifluoromethylbenzyl)oxime], the IC50 under setting [1] is at most 1 µM.
For `O=S(=O)(c1ccc(OC(F)(F)F)cc1)N1CCC(=NOCc2cc(Cl)ccn2)CC1` [Example 118, 1-(4-Trifluoromethoxybenzenesulfonyl)piperidin-4-one O-(4-chloropyridin-2-ylmethyl)oxime], the IC50 under setting [1] was at most 1 µM.
For the compound `O=S(=O)(c1ccc(OC(F)(F)F)cc1)N1CCC(=NOCc2ncccc2-c2ccccc2)CC1` [Example 313, 1-(4-(Trifluoromethoxy)phenylsulfonyl)piperidin-4-one O-(3-phenylpyridin-2-yl)methyl oxime], the IC50 under setting [1] is at most 1 µM.
With `CCCCc1ccc(S(=O)(=O)N2CCC(=NOCc3cccc(OC)n3)CC2)cc1` [Example 76, 1-(4-Butylbenzenesulfonyl)piperidin-4-one O-(6-methoxypyridin-2-ylmethyl)oxime], the IC50 under setting [1] was at most 1 µM.
As for `O=S(=O)(c1cccnc1)N1CCC(=NOC(c2ccc(F)cc2)c2ccc(F)cc2)CC1` [Example 291, 1-(Pyridin-3-ylsulfonyl)piperidin-4-one O-bis(4-fluorophenyl)methyl oxime], under setting [1], the IC50 is at most 1 µM.
Take `COc1cc(CON=C2CCN(S(=O)(=O)c3ccc(OC(F)(F)F)cc3)CC2)nc2ccccc12` [Example 189, 1-(4-(Trifluoromethoxy)phenylsulfonyl)piperidin-4-one O-(4-methoxyquinolin-2-yl)methyl oxime]: the IC50 under setting [1] was at most 1 µM.
On the same count and under the same terms, in the case of `COc1ncccc1CON=C1CCN(S(=O)(=O)c2ccc(OC(F)(F)F)cc2)CC1` [Example 111, 1-(4-Trifluoromethoxybenzenesulfonyl)piperidin-4-one O-(2-methoxypyridin-3-ylmethyl)oxime] it was at most 1 µM.
On the same count and under the same terms, in the case of `N#Cc1cccc(C(ON=C2CCN(S(=O)(=O)c3ccc(C#N)nc3)CC2)C2CC2)c1` (stereo not drawn) [Example 278, 5-(4-((3-Cyanophenyl)(cyclopropyl)methoxyimino)piperidin-1-ylsulfonyl)picolinonitrile] it was at most 1 µM; in that of `O=S(=O)(c1ccc(F)cc1)N1CCC(=NOCc2cccc(C(F)(F)F)c2)CC1` [Example 62, 1-(4-Fluorobenzenesulfonyl)piperidin-4-one O-(3-trifluoromethylbenzyl)oxime], at most 1 µM.
Same read-out and setting: the value for `O=S(=O)(c1ccccc1OC(F)(F)F)N1CCC(=NOC(c2ccc(F)cc2)c2ccc(F)cc2)CC1` [Example 289, 1-(2-(Trifluoromethoxy)phenylsulfonyl)piperidin-4-one O-bis(4-fluorophenyl)methyl oxime] was at most 1 µM; that for `O=C(CCC(c1ccc(F)cc1)c1ccc(F)cc1)N1CCC(=NOCc2ccccc2)CC1` [Example 31, 1-[4,4-Bis-(4-fluorophenyl)butyryl]piperidin-4-one O-benzyloxime] was at most 1 µM.
Consider `N#Cc1cccc(C(ON=C2CCN(S(=O)(=O)c3ccc(OC(F)(F)F)cc3)CC2)C2CC2)c1` (stereo not drawn) [Example 186, 3-(Cyclopropyl(1-(4-(trifluoromethoxy)phenylsulfonyl)piperidin-4-ylideneaminooxy)methyl)benzonitrile], for which, under setting [1], the half-maximal inhibitory concentration (IC50) was at most 1 µM.
Still for that read-out and setting: the value for `O=C(CCN1CCC(c2ccccc2)CC1)N1CCC(=NOCc2cccc(C(F)(F)F)c2)CC1` [Example 47, 1-[3-(4-Phenylpiperidin-1-ylpropionyl]piperidin-4-one O-(3-trifluoromethylbenzyl)oxime hydrochloride] was at most 1 µM; that for `O=S(=O)(c1ccc(F)c(F)c1)N1CCC(=NOC(c2ccc(F)cc2)c2ccc(F)cc2)CC1` [Example 243, 1-(3,4-Difluorophenylsulfonyl)piperidin-4-one O-bis(4-fluorophenyl)methyl oxime] was at most 1 µM.
Same read-out and setting: in the case of `COc1cccc(CON=C2CCN(S(=O)(=O)c3ccc(OC(F)(F)F)cc3)CC2)n1` [Example 110, 1-(4-Trifluoromethoxybenzenesulfonyl)piperidin-4-one O-(6-methoxypyridin-2-ylmethyl)oxime] it was at most 1 µM.
On the same count and under the same terms, in the case of `N#Cc1cccc(S(=O)(=O)N2CCC(=NOCc3cccc(C(F)(F)F)c3)CC2)c1` [Example 284, 3-(4-(3-(Trifluoromethyl)benzyloxyimino)piperidin-1-ylsulfonyl)benzonitrile] it was at most 1 µM; in that of `O=S(=O)(c1cccc(OC(F)(F)F)c1)N1CCC(=NOC(c2ccc(F)cc2)c2ccc(F)cc2)CC1` [Example 290, 1-(3-(Trifluoromethoxy)phenylsulfonyl)piperidin-4-one O-bis(4-fluorophenyl)methyl oxime], at most 1 µM; in that of `N#Cc1cccc(C(ON=C2CCN(S(=O)(=O)c3ccc(NC4CC4)nc3)CC2)C2CC2)c1` (stereo not drawn) [Example 274, 3-(Cyclopropyl(1-(6-(cyclopropylamino)pyridin-3-ylsulfonyl)piperidin-4-ylideneaminooxy)methyl)benzonitrile], at most 1 µM.
Turning to `O=S(=O)(c1cccc(C(F)(F)F)c1)N1CCC(=NOCCc2ccccc2)CC1` [Example 310, 1-(3-(Trifluoromethyl)phenylsulfonyl)piperidin-4-one O-phenethyl oxime], the IC50 under setting [1] was at most 1 µM.
The same measure, in the same setting: the value for `O=S(=O)(c1ccc(Cl)cc1Cl)N1CCC(=NOC(c2ccc(F)cc2)c2ccc(F)cc2)CC1` [Example 228, 1-(2,4-Dichlorophenylsulfonyl)piperidin-4-one O-bis(4-fluorophenyl)methyl oxime] was at most 1 µM; that for `CCCCc1ccc(S(=O)(=O)N2CCC(=NOCc3ccnc(Cl)c3)CC2)cc1` [Example 69, 1-(4-Butylbenzenesulfonyl)piperidin-4-one O-(2-chloropyridin-4-ylmethyl)oxime] was at most 1 µM.
Still for that read-out and setting: in the case of `O=S(=O)(c1ccc(OC(F)F)cc1)N1CCC(=NOC(c2ccc(F)cc2)c2ccc(F)cc2)CC1` [Example 232, 1-(4-(Difluoromethoxy)phenylsulfonyl)piperidin-4-one O-bis(4-fluorophenyl)methyl oxime] it was at most 1 µM; in that of `O=S(=O)(c1ccc(Cl)nc1)N1CCC(=NOCc2cccc(C(F)(F)F)c2)CC1` [Example 64, 1-(6-Chloropyridine-3-sulfonyl)piperidin-4-one O-(3-trifluoromethylbenzyl)oxime], at most 1 µM.
For the compound `CCCCc1ccc(S(=O)(=O)N2CCC(=NOCC3CCCCC3)CC2)cc1` [Example 82, 1-(4-Butylbenzenesulfonyl)piperidin-4-one O-cyclohexylmethyloxime], the half-maximal inhibitory concentration (IC50) under setting [1] was at most 1 µM.
The same measure, in the same setting: in the case of `O=S(=O)(c1cccc(C(F)(F)F)c1)N1CCC(=NOC/C=C/c2ccccc2)CC1` [Example 368, 1-(3-(Trifluoromethyl)phenylsulfonyl)piperidin-4-one O-cinnamyl oxime] it was at most 1 µM; in that of `O=S(=O)(c1ccc(OC(F)(F)F)cc1)N1CCC(=NOCc2cccc(C(F)(F)F)c2)CC1` [Example 58, 1-(4-Trifluoromethoxybenzenesulfonyl)piperidin-4-one O-(3-trifluoromethylbenzyl)oxime], at most 1 µM.
Same read-out and setting: the value for `O=C(CN1CCC(=NOCc2cccc(C(F)(F)F)c2)CC1)NCc1cc(C(F)(F)F)cc(C(F)(F)F)c1` [Example 329, N-(3,5-Bis(trifluoromethyl)benzyl)-2-(4-(3-(trifluoromethyl)benzyloxyimino)piperidin-1-yl)acetamide] was at most 1 µM.
Regarding `O=C(CC(=O)N1CCC(=NOC(c2ccc(F)cc2)c2ccc(F)cc2)CC1)Nc1ccc(F)cc1F` [Example 227, 3-(4-(Bis(4-fluorophenyl)methoxyimino)piperidin-1-yl)-N-(2,4-difluorophenyl)-3-oxopropanamide], the 50% inhibitory concentration (IC50) (calcium mobilization in vitro assay, N-type calcium channel blockers) amounted to 1.1 µM.
`O=S(=O)(c1ccc(OC(F)(F)F)cc1)N1CCC(=NOC[C@@H]2Cc3ccccc3N2)CC1` [Example 263, (S)-1-(4-(trifluoromethoxy)phenylsulfonyl)piperidin-4-one O-indolin-2-ylmethyl oxime]: the IC50 under setting [1] is at most 1 µM.
The same measure, in the same setting: in the case of `CCCCc1ccc(S(=O)(=O)N2CCC(=NOCc3cccc(OC)c3)CC2)cc1` [Example 80, 1-(4-Butylbenzenesulfonyl)piperidin-4-one O-(3-methoxybenzyl)oxime] it was at most 1 µM.
